In the assay the target is T1, integrin αvβ3 (Homo sapiens, UniProt P05106+P06756).
T1 construct: gene ITGAV; purified human αvβ3 Integrin; with integrin αv subunit (ITGAV, P06756)
The assay can be described thus: SPR (Biacore S200, integrin immobilized on CM5 chip, steady-state model). In kind it is binding.

What is called Kd is the free concentration of one partner at which half of the binding sites on the other are occupied at equilibrium, for simple one-to-one binding.

Where two headings read alike, the source gives them in different places.

T1 sequence (P06756 31-889): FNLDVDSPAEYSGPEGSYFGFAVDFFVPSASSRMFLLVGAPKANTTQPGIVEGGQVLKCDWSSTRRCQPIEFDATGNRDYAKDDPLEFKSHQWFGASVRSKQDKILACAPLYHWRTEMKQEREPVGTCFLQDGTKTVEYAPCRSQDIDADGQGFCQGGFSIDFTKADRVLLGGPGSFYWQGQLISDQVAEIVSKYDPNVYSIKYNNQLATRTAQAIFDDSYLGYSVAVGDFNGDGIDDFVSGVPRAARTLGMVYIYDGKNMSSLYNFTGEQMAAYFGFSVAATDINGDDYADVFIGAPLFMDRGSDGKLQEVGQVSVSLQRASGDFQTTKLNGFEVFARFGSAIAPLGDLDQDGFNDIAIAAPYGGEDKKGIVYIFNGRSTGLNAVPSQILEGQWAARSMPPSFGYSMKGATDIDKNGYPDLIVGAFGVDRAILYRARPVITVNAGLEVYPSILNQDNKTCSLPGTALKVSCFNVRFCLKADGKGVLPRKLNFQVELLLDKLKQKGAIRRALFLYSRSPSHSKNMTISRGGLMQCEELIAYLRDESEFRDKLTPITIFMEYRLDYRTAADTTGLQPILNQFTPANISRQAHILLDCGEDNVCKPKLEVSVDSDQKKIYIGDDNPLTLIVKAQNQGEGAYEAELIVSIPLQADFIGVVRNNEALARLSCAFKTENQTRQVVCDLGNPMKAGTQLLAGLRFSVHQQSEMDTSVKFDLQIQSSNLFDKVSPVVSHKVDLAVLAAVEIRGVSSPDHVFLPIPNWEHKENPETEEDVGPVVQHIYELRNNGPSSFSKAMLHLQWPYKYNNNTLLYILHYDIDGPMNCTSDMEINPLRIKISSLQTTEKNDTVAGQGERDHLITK
T1 sequence (P06756 891-1048): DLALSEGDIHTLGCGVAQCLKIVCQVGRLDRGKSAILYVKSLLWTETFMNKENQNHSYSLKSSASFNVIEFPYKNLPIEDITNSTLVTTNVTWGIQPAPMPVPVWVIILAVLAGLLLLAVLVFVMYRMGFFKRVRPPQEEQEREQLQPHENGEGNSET
T1 sequence (P05106 27-788): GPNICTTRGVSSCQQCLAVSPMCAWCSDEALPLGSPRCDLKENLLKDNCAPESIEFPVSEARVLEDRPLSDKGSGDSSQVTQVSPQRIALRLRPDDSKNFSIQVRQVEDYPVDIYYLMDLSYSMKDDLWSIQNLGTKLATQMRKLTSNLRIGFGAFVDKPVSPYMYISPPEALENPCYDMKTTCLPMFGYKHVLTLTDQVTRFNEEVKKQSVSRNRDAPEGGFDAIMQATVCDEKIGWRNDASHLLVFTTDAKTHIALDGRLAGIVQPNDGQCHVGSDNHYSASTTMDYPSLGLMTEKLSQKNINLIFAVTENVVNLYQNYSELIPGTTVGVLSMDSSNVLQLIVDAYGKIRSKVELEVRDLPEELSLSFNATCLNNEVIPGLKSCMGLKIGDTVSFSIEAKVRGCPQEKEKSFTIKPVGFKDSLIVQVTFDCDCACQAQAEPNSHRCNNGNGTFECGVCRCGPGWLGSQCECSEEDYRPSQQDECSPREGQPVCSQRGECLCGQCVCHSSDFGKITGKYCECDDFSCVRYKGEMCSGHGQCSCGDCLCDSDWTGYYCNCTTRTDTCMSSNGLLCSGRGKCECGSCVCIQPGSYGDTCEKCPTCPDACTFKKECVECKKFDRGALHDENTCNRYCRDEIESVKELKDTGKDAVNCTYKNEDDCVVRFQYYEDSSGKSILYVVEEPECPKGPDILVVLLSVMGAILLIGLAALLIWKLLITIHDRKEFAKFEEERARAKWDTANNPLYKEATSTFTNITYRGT

Consider `CC(C)[C@@H](O)CC[C@@H](C)[C@H]1CC[C@H]2[C@@H]3CC=C4C[C@@H](O)CC[C@]4(C)[C@H]3CC[C@]12C` [24HC, 24-(S)-hydroxycholesterol], for which the dissociation constant (Kd) amounted to 0.151 µM. Take `C[C@H](CCCC(C)(C)O)[C@H]1CC[C@H]2[C@@H]3CC=C4C[C@@H](O)CC[C@]4(C)[C@H]3CC[C@]12C` [25HC, 25-hydroxycholesterol]: under “read-out: Kd”, the dissociation constant Kd came out at 0.0566 µM.

(Values after paper PMC10244445, “Molecular basis for the recognition of 24-(S)-hydroxycholesterol by integrin αvβ3” (Scientific Reports, 2023).)
